Active and inactive are the calls of the source.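 The calls were made as follows: active = mean EC50 below 10 µM; inactive = the rest.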
Molecular target: Type-1 angiotensin II receptor (Homo sapiens) (UniProt P30556)
Test: AT1 receptor agonist selectivity testing, SAR follow-up, selectivity assay for APJ receptor agonist project, cell-based, CHO-K1 AGTR1, beta-arrestin, luminescence, set 5 (AID 504532)
Details: CHO-K1 AGTR1 beta-arrestin PathHunter, 90 min

Type-1 angiotensin II receptor (Homo sapiens), sequence (P30556 whole entry, looked up): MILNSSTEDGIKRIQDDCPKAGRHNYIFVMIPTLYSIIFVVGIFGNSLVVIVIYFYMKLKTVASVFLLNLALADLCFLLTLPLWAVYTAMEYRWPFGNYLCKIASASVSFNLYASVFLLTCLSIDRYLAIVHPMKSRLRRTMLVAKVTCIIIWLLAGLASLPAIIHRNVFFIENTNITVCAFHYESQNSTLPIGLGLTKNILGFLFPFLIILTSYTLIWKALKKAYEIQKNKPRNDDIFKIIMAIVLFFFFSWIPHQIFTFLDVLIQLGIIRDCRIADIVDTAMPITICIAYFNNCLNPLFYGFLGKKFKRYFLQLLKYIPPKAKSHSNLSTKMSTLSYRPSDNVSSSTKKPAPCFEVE

Compound | EC50
COc1cccc(S(=O)(=O)O/N=C2\C=C(C3CCCCC3)C(=O)C=C2C)c1 | > 79 µM (inactive)
CC1=CC(=O)C(C2CCCCC2)=C/C1=N/OS(=O)(=O)c1cccc(C)c1 | > 79 µM (inactive)
CC1=CC(=O)C(C(C)(C)C)=C/C1=N\OS(=O)(=O)c1ccccc1Cl | > 79 µM (inactive)
CC1=CC(=O)C(C(C)C)=C/C1=N\OS(=O)(=O)c1ccccc1Cl | > 79 µM (inactive)
CC(C)C1=CC(=NOS(=O)(=O)c2ccccc2)C=CC1=O | > 79 µM (inactive)
CC1=CC(=O)C(C2CCCCC2)=C/C1=N\OS(=O)(=O)c1c(Cl)cccc1Cl | > 79 µM (inactive)
CC1=CC(=O)C(C(C)C)=C/C1=N\OS(=O)(=O)C1CCCCC1 | > 79 µM (inactive)
CC1=CC(=O)C(C(C)(C)C)=C/C1=N/OS(=O)(=O)c1cccc(C#N)c1 | > 79 µM (inactive)
CC1=CC(=O)C(C(C)C)=C/C1=N/OS(=O)(=O)c1cccc(Br)c1 | > 79 µM (inactive)
CC1=CC(=O)C(C(C)(C)C)=C/C1=N\OS(=O)(=O)c1c(Cl)cccc1Cl | > 79 µM (inactive)
CC1=CC(=O)C(C(C)C)=C/C1=N/OS(=O)(=O)c1cccc(C#N)c1 | > 79 µM (inactive)
CC1=CC(=O)C(C2CCCCC2)=C/C1=N\OS(=O)(=O)c1cn(C)cn1 | > 79 µM (inactive)
CC1=CC(=O)C(C(C)(C)C)=C/C1=N\OS(=O)(=O)c1cccc(Cl)c1 | > 79 µM (inactive)
COc1cccc(S(=O)(=O)O/N=C2\C=C(C(C)C)C(=O)C=C2C)c1 | > 79 µM (inactive)
CC1=CC(=O)C(C(C)(C)C)=C/C1=N\OS(=O)(=O)C1CCCCC1 | > 79 µM (inactive)

Second part, the molecule after the results:

EC50 | Compound
> 79 µM (inactive) | CC1=CC(=O)C(C(C)(C)C)=C/C1=N/OS(=O)(=O)c1cccc(C)c1
> 79 µM (inactive) | CC1=CC(=O)C(C(C)C)=C/C1=N\OS(=O)(=O)c1c(Cl)cccc1Cl
> 79 µM (inactive) | Cc1cc(N=O)c(C(C)C)cc1O
> 79 µM (inactive) | CC1=CC(=O)C(C2CCCCC2)=C/C1=N\OS(=O)(=O)c1cccc(Cl)c1
> 79 µM (inactive) | CC1=CC(=O)C(C(C)(C)C)=C/C1=N/OS(=O)(=O)c1cccc(Br)c1
> 79 µM (inactive) | Cc1cc(O)c(C(C)(C)C)cc1N=O
> 79 µM (inactive) | CC1=CC(=O)C(C(C)C)=C/C1=N\OS(=O)(=O)c1cn(C)cn1
> 79 µM (inactive) | CC1=CC(=O)C(C2CCCCC2)=C/C1=N/OS(=O)(=O)c1cccc(Br)c1
> 79 µM (inactive) | N#Cc1ccc(S(=O)(=O)ON=C2C=CC(=O)C(c3ccccc3)=C2)cc1
> 79 µM (inactive) | CC1=CC(=O)C(C(C)(C)C)=C/C1=N\OS(=O)(=O)c1cn(C)cn1
> 79 µM (inactive) | COc1cccc(S(=O)(=O)O/N=C2\C=C(C(C)(C)C)C(=O)C=C2C)c1
> 79 µM (inactive) | CC1=CC(=O)C(C(C)C)=C/C1=N\OS(=O)(=O)c1cccc(Cl)c1
> 79 µM (inactive) | CC1=CC(=O)C(C(C)C)=C/C1=N/OS(=O)(=O)c1cccc(C)c1
> 79 µM (inactive) | O=C1C=CC(=NOS(=O)(=O)c2ccccc2)C=C1c1ccccc1
> 79 µM (inactive) | CC1=CC(=O)C(C2CCCCC2)=C/C1=N/OS(=O)(=O)c1cccc(C#N)c1
> 79 µM (inactive) | CC1=CC(=O)C(C2CCCCC2)=C/C1=N\OS(=O)(=O)c1ccccc1Cl

Reference: PubChem BioAssay AID504532 (Sanford-Burnham Center for Chemical Genomics, 2011)
